ChEMBL document CHEMBL1201862, “PubChem BioAssay data set” (2004)
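Compound exposure: 48 hours, 5 concentrations, 96-well plates. GI50: concentration for 50% inhibition of growth.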 Calls of active or inactive are those of the source. Rule as the data show it: active = GI50 up to about 1.1 µM and inactive = higher.

Experiments:
Assay in all cases: DTP human tumour cell line panel, 48 h
[1] = tested on: UACC-257
[2] = tested on: SNB-75
[3] = tested on: NCI-H226
[4] = tested on: UACC-62
[5] = tested on: NCI-H23
[6] = tested on: Malme-3M
[7] = tested on: LOX IMVI
[8] = tested on: SF-539
[9] = tested on: CCRF-CEM
[10] = tested on: KM12
[11] = tested on: IGROV-1
[12] = tested on: A549
[13] = tested on: RXF 393
[14] = tested on: HCT-15
[15] = tested on: SF-268
[16] = tested on: A498

## Oc1cccc(-c2cccc(O)n2)n1
[1]
  GI50: > 100 µM (inactive)
[2]
  GI50: > 100 µM (inactive)
[3]
  GI50: > 100 µM (inactive)
[4]
  GI50: > 100 µM (inactive)
[5]
  GI50: > 100 µM (inactive)
[6]
  GI50: > 100 µM (inactive)
[7]
  GI50: > 100 µM (inactive)
[8]
  GI50: > 100 µM (inactive)
[9]
  GI50: > 100 µM (inactive)
[10]
  GI50: > 100 µM (inactive)
[11]
  GI50: > 100 µM (inactive)
[12]
  GI50: > 100 µM (inactive)
[13]
  GI50: > 100 µM (inactive)
[14]
  GI50: > 100 µM

## CC(=O)OC1(Sc2ccccc2)CC2[C@H]3COC(C)(C)O[C@H]3CC[C@@]2(C)CC1=O (some centres undefined)
[1]
  GI50: 49.9 µM (inactive)
[2]
  GI50: 23.2 µM (inactive)
[3]
  GI50: 20.2 µM (inactive)
[4]
  GI50: 30.1 µM (inactive)
[5]
  GI50: 21.4 µM (inactive)
[6]
  GI50: 99.3 µM (inactive)
[8]
  GI50: 26.1 µM (inactive)
[10]
  GI50: 43.5 µM (inactive)
[11]
  GI50: 21.3 µM (inactive)
[12]
  GI50: 43.2 µM (inactive)
[13]
  GI50: 47.2 µM (inactive)
[14]
  GI50: 34.9 µM

## COc1ccc(/N=c2\ssc3c(=S)ssc23)cc1
[1]
  GI50: > 10 µM (inactive)
[2]
  GI50: 19.4 µM (inactive)
[3]
  GI50: > 100 µM (inactive)
[4]
  GI50: 20.2 µM (inactive)
[5]
  GI50: 34.5 µM (inactive)
[6]
  GI50: 34.9 µM (inactive)
[7]
  GI50: 15.7 µM (inactive)
[8]
  GI50: 27.4 µM (inactive)
[9]
  GI50: 3.68 µM (inactive)
[10]
  GI50: 62.7 µM (inactive)
[11]
  GI50: 5.94 µM (inactive)
[12]
  GI50: 31.1 µM (inactive)
[15]
  GI50: 35.7 µM (inactive)
[13]
  GI50: 21.2 µM (inactive)
[14]
  GI50: 18.3 µM

## Cc1cc(C)c2c(c1)Nc1ccccc1P2c1ccccc1 (centres undefined)
[2]
  GI50: 23.7 µM (inactive)
[4]
  GI50: 28.9 µM (inactive)
[5]
  GI50: 25.9 µM (inactive)
[6]
  GI50: 24.5 µM (inactive)
[7]
  GI50: 27.2 µM (inactive)
[11]
  GI50: 27.8 µM (inactive)
[12]
  GI50: 32.1 µM (inactive)
[15]
  GI50: 59.6 µM (inactive)
[13]
  GI50: 29.2 µM (inactive)
[14]
  GI50: 16.9 µM

## COC(=O)n1c(CBr)c(Br)c2ccccc21
[1]
  GI50: 39.2 µM (inactive)
[2]
  GI50: 10.8 µM (inactive)
[3]
  GI50: 13.1 µM (inactive)
[4]
  GI50: 28.1 µM (inactive)
[5]
  GI50: 22.7 µM (inactive)
[6]
  GI50: 79.6 µM (inactive)
[8]
  GI50: 31.3 µM (inactive)
[9]
  GI50: 23.9 µM (inactive)
[10]
  GI50: 42.9 µM (inactive)
[11]
  GI50: 20.9 µM (inactive)
[12]
  GI50: 40.5 µM (inactive)
[15]
  GI50: 25.6 µM (inactive)
[14]
  GI50: 42.2 µM

## NCCCCC(=O)c1cccnc1
[1]
  GI50: > 100 µM (inactive)
[4]
  GI50: > 100 µM (inactive)
[5]
  GI50: > 100 µM (inactive)
[6]
  GI50: > 100 µM (inactive)
[7]
  GI50: > 100 µM (inactive)
[8]
  GI50: > 100 µM (inactive)
[9]
  GI50: > 100 µM (inactive)
[10]
  GI50: > 100 µM (inactive)
[16]
  GI50: > 100 µM (inactive)
[11]
  GI50: > 100 µM (inactive)
[12]
  GI50: > 100 µM (inactive)
[15]
  GI50: > 100 µM (inactive)
[14]
  GI50: > 100 µM

## COc1cc2cnc3c4cc(OC)c(OC(C)C)cc4ccc3c2cc1OC
[1]
  GI50: > 100 µM (inactive)
[2]
  GI50: > 100 µM (inactive)
[3]
  GI50: > 100 µM (inactive)
[4]
  GI50: > 100 µM (inactive)
[5]
  GI50: > 100 µM (inactive)
[6]
  GI50: > 100 µM (inactive)
[7]
  GI50: > 100 µM (inactive)
[8]
  GI50: > 100 µM (inactive)
[9]
  GI50: > 100 µM (inactive)
[10]
  GI50: > 100 µM (inactive)
[11]
  GI50: > 100 µM (inactive)
[12]
  GI50: > 100 µM (inactive)
[15]
  GI50: > 100 µM (inactive)
[13]
  GI50: > 100 µM (inactive)
[14]
  GI50: > 100 µM

## CC1O[C@@H]2CCCCC(=O)[C@]2(C)[C@H]1C (some centres undefined)
[1]
  GI50: > 100 µM (inactive)
[2]
  GI50: > 100 µM (inactive)
[3]
  GI50: > 100 µM (inactive)
[4]
  GI50: > 100 µM (inactive)
[6]
  GI50: > 100 µM (inactive)
[7]
  GI50: > 100 µM (inactive)
[9]
  GI50: > 100 µM (inactive)
[10]
  GI50: > 100 µM (inactive)
[11]
  GI50: > 100 µM (inactive)
[12]
  GI50: > 100 µM (inactive)
[13]
  GI50: 70.3 µM (inactive)
[14]
  GI50: > 100 µM
